Key:
[1] = tested on: NADPH oxidase activity in fMLP-challenged HL60 cells; assay: fMLP-dependent superoxide production (NBT) in differentiated HL60 cells; type: cell-based, human; details: 10 μM compounds or 100 nM wortmannin, 250 nM fMLP; result in words
Procedure: (§1) Differentiated HL60 cells stably expressing GFP-PH-Akt were challenged with 250 nM fMLP in the presence and absence of 10 μM concentrations of the indicated compounds. Translocation of GFP-PH-Akt to the plasma membrane was evaluated by Western blot. Quantification shown below. ***, P<0.001 analysis of variance (ANOVA) is statistically different from control (PBS+vehicle). […] Differentiated HL60 cells were challenged with 1 μM fMLP in the presence and absence of 10 μM concentrations of the indicated compounds. Rac1 activation was assessed by Western blots of affinity-precipitated GTP-Rac1 from HL60 cell lysates. Western blot shown is representative of three independent experiments and quantitation contains data pooled from three independent experiments±S.E.M. *P<0.05 ANOVA is statistically different from control (DMSO only). n=3. […] Differentiated HL60 cells were challenged with 250 nM fMLP or 250 nM PMA in the presence and absence of 10 μM compounds or 100 nM Wortmannin (Wtmn). NADPH oxidase activity was determined after reaction with NBT by absorbance at 540 nm. Data shown is contains data pooled from three independent experiments (each in duplicate)±S.E.M. *, P<0.05 ANOVA is statistically different from control (DMSO only).
The nitro blue tetrazolium (NBT) method was used to assess the effects of Gβγ inhibitors on NADPH oxidase activity. HL60 cells (differentiated for 4 days) were washed with and resuspended in HBSS containing calcium and magnesium (Cellgro; Mediatech, Herndon Va.) to a final concentration of 2×10^6 cells/ml. Cells (1×10^6/reaction) were pretreated with 10 μMGβγ inhibitor compound (in DMSO) or 100 nM wortmannin (Sigma Aldrich) for 10 min at 37° C. before the addition of NBT (25 μl of 10 mg/ml in methanol) and then incubated or an additional 5 min at 37° C. All treatments contained the same final concentration of DMSO. […] Cell pellets were then resuspended in 200 μl of DMSO, transferred to a 96-well plate, and absorbance was measured at 540 nm. […]

[2] = tested on: primary human neutrophils; assay: fMLP-induced chemotaxis of primary human neutrophils (Boyden chamber); type: cell-based; details: 250 nM fMLP; for effect on fMLP-induced chemotaxis: 10 μM compound or 1 μM wortmannin, result in words
Procedure: Differentiated HL60 cells (200 k) were pretreated with 10 μM concentrations of the indicated compound, challenged with 250 nM fMLP, and assayed for chemotaxis in a Boyden chamber for 1 h at 37° C. […] Chemotaxis was quantified as above by subtracting out background cells (0-10 cells) in the absence of chemoattractant to obtain total transmigrated cells (−100 cells GM-CSF+vehicle) and represented as the percentage of GM-CSF-treated control cells. No statistically significant difference from control was seen by ANOVA. […] Primary human neutrophils were isolated from whole blood to ≧80% purity. Neutrophils (2×10^5) were pretreated with gallein (10 μM), M119 (10 μM), M119B (10 μM), or wortmannin (wtmn.) (1 μM) and then challenged with 250 nM fMLP or 10 nM IL-8 to evaluate chemotaxis in a Boyden chamber for 1 h at 37° C. […] NS, not statistically different from control. […] Primary human neutrophils were isolated and treated (250 nM fMLP±gallein) as described above. Chemotaxis was quantified as above by subtracting out background cells to obtain total transmigrated cells and represented as the percentage of fMLP-treated control cells. Data shown are pooled from two independent experiments, each in duplicate, ±S.E.M.
Chemotaxis was assayed using a Boyden chamber (Neuro Probe, Gaithersburg, Md.) using 3-μm polyvinylpyrrolidone-free polycarbonate filters (Neuro Probe). HL60 cells (differentiated for 4 days) were washed with and resuspended in HBSS containing 1% bovine serum albumin to a final concentration of 1×10^6 cells/ml. Primary human neutrophils were washed and resuspended in NaCl buffer (140 mM NaCl, 4 mM KCl, 10 mM D-glucose, 10 mM HEPES, pH 7.4, 1 mM MgCl2, and 1 mM CaCl2) to a final concentration of 1×10^6 cells/mi. Chemoattractant [1 μM granulocyte-macrophage-colony stimulating factor (GM-CSF), 10 nM IL-8, or 250 nM fMLP; Sigma Aldrich] was added to the bottom chamber in HBSS containing 1% bovine serum albumin. Cell suspensions (0.2×10^6 cells/well) were added to the top wells of the Boyden chamber and allowed to migrate for 1 h at 37° C. When applicable, cell suspensions were preincubated for […] with small-molecule inhibitors (in DMSO) at the indicated concentrations, and the bottom chamber was adjusted to the same concentration of small molecule. All treatments contained the same final concentration of DMSO. […] Chemotactic HL60 cells were scored by counting three microscope fields and subtracting the number of cells from fMLP wells as background. […] For all the small molecules, effects of the compounds on chemokinesis was analyzed by measuring chemotaxis in the presence of 250 nM fMLP in both the upper and lower chambers of the Boyden Chamber and measuring changes in transwell migration. […]

[3] = tested on: Rac1 activation in differentiated HL60 cells; assay: fMLP-induced Rac1 activation in differentiated HL60 cells; type: cell-based, human; details: 10 μM compound, 1 μM fMLP; result in words
Procedure: as §1
HL60 cells (differentiated for 4 days) were washed with and resuspended in NaCl buffer to a final concentration of 20×10^6 cells/ml. Cells (10×10^6/reaction) were pretreated with 10 μMGβγ inhibitor (in DMSO) for 10 min before challenge with 1 μM fMLP for 90 s in a 37° C. water bath and then immediately transferred to an ice-water bath. Cells were recovered by centrifugation at 500 g and washed two times with ice-cold Tris-buffered saline, pH 7.4. […] Chemiluminescence was analyzed using a charge-coupled device camera in a UVP Epi-Chem II Darkroom imaging system. Results were expressed as percent fMLP-stimulated GTP Rac1 normalized to total Rac1 with the background subtracted.

Row | SMILES | effect on fMLP-dependent superoxide production [1] | effect on fMLP-induced chemotaxis [2] | IC50 ([2]; Homo sapiens, Neutrophil, read-out: IC50 for block of fMLP-dependent chemotaxis) [µM] | effect on fMLP-induced Rac1 activation [3]
1 | O=C(O)c1ccccc1-c1c2ccc(=O)c(O)c-2oc2c(O)c(O)ccc12 (racemic) [Gallein] | significantly inhibited | significantly inhibited | ~5 | inhibited
2 | O=C(O)C1CCCCC1c1c2ccc(=O)c(O)c-2oc2c(O)c(O)ccc12 (stereo not shown) [Compound M119, cyclohexanecarboxylic acid, 2-(4,5,6-trihydroxy-3-oxo-3H-xanthen-9-yl)-(9cl)] | significantly inhibited | significantly inhibited |  | inhibited
3 | O=C(O)C1CCCCC1c1c2ccc(=O)cc-2oc2cc(O)ccc12 (stereo not shown) [Compound M119B] | did not significantly affect | no affect |  | little effect

Reference: patent US8975259B2, “Compositions and methods for inhibiting G protein signaling” (University of Rochester, priority 2007, dated 2015)
